This note sets out measurements from patent US11673883B2, “Heterocyclic compounds as immunomodulators” (Incyte Corporation, priority 2016, dated 2023).

The target in the experiment is PD-1/PD-L1 protein/protein interaction (Homo sapiens (Human), UniProt Q9NZQ7). As to the kind of experiment: PD-1/PD-L1 Homogeneous Time-Resolved Fluorescence (HTRF) Binding Assay. The note with it: recombinant human PD-L1 (19-238) His-tag, human PD-1 (25-167) Fc tag; 25° C., PBS pH 7.4. The method, then: Example A. PD-1/PD-L1 Homogeneous Time-Resolved Fluorescence (HTRF) Binding Assay
The assays were conducted in a standard black 384-well polystyrene plate with a final volume of 20 μL. Inhibitors were first serially diluted in DMSO and then added to the plate wells before the addition of other reaction components. The final concentration of DMSO in the assay was 1%. The assays were carried out at 25° C. in the PBS buffer (pH 7.4) with 0.05% Tween-20 and 0.1% BSA. Recombinant human PD-L1 protein (19-238) with a His-tag at the C-terminus was purchased from AcroBiosystems (PD1-H5229). Recombinant human PD-1 protein (25-167) with Fc tag at the C-terminus was also purchased from AcroBiosystems (PD1-H5257). PD-L1 and PD-1 proteins were diluted in the assay buffer and […] was added to the plate well. Plates were centrifuged and proteins were preincubated with inhibitors for 40 minutes. The incubation was followed by the addition of 10 μL of HTRF detection buffer supplemented with Europium cryptate-labeled anti-human IgG (PerkinElmer-AD0212) specific for Fc and anti-His antibody conjugated to SureLight®-Allophycocyanin (APC, PerkinElmer-AD0059H). After centrifugation, the plate was incubated at 25° C. for 60 min. before reading on a PHERAstar FS plate reader (665 nm/620 nm ratio). Final concentrations in the assay were […], 10 nM PD-L1, 1 nM europium anti-human IgG and 20 nM anti-His-Allophycocyanin. IC50 determination was performed by fitting the curve of percent control activity versus the log of the inhibitor concentration using the GraphPad Prism 5.0 software.
(Time-resolved FRET reads energy transfer from a long-lived donor to a nearby acceptor.)

PD-1/PD-L1 protein/protein interaction, sequence (Q9NZQ7 19-238): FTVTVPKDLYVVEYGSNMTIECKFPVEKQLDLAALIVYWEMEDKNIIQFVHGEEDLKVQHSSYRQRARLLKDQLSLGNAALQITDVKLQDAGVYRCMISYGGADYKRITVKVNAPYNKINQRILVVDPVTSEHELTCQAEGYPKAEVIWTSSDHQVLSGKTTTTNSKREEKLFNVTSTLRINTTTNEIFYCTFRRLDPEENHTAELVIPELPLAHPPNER

With `Cc1c(-c2ccccc2)cccc1N1CCC(N[C@H]2C[C@@H](O)C2)CC1` [Example 29, cis-3-(1-(2-methylbiphenyl-3-yl)piperidin-4-ylamino)cyclobutanol], the IC50 is at most 100 nM.

In the case of `Cc1c(-c2ccccc2)cccc1N1CCC(NCC2(CO)CC2)CC1` [Example 26, (1-((1-(2-methylbiphenyl-3-yl)piperidin-4-ylamino)methyl)cyclopropyl)methanol], the IC50 was at most 100 nM.

As for `N#Cc1c(-c2ccc3c(c2)OCCO3)cccc1N1CCC(N[C@H]2C[C@@H](CO)C2)CC1` [Example 8, 2-(2,3-dihydrobenzo[b][1,4]dioxin-6-yl)-6-(4-(cis-3-(hydroxymethyl)cyclobutyl-amino)piperidin-l-yl)benzonitrile], the half-inhibitory concentration (IC50) is at most 100 nM.

As to `Cc1c(-c2ccccc2)cccc1N1CCC(N[C@H]2C[C@H](O)C2)CC1` [Example 28, trans-3-(1-(2-methylbiphenyl-3-yl)piperidin-4-ylamino)cyclobutanol], the IC50 was at most 100 nM.

As to `Cc1c(-c2ccccc2)cccc1N1CCC(NC2CC(C(=O)O)C2)CC1` (centres unmarked) [Example 45, 3-(1-(2-methylbiphenyl-3-yl)piperidin-4-ylamino)cyclobutane-carboxylic acid], the IC50 was at most 100 nM.

Take `Cc1c(-c2ccccc2)cccc1N1CCC(NCC(=O)N2CCN(C(C)C)CC2)CC1` [Example 27, 1-(4-isopropylpiperazin-1-yl)-2-(1-(2-methylbiphenyl-3-yl)piperidin-4-ylamino)ethanone]: the IC50 lay in the range of 100 to 500 nM.

As to `Cc1c(-c2ccccc2)cccc1N1CCC(NC2CCC(C#N)CC2)CC1` (single isomer, unassigned) [40 (peak 1), 4-(1-(2-methylbiphenyl-3-yl)piperidin-4-ylamino)cyclohexane-carbonitrile], the IC50 is at most 100 nM.

Take `Cc1c(-c2ccccc2)cccc1N1CCC(NC2CCCC(C(=O)O)C2)CC1` (single isomer, unassigned) [46 (peak 1), 3-(1-(2-methylbiphenyl-3-yl)piperidin-4-ylamino)cyclohexane carboxylic acid]: the half-maximal inhibitory concentration (IC50) is at most 100 nM.

With `N#Cc1c(-c2ccc3c(c2)OCCO3)cccc1N1CCC(N[C@H]2CC[C@H](O)CC2)CC1` [Example 24, 2-(2,3-dihydrobenzo[b][1,4]dioxin-6-yl)-6-(4-(trans-4-hydroxycyclohexylamino)piperidin-1-yl)benzonitrile], the IC50 is at most 100 nM.

In the case of `N#Cc1c(-c2ccc3c(c2)OCCO3)cccc1N1CCC(N[C@H]2C[C@@H](O)C2)CC1` [Example 1, 2-(2,3-dihydro-1,4-benzodioxin-6-yl)-6-{4-[(cis-3-hydroxycyclobutyl)amino]piperidin-1-yl}benzonitrile], the 50% inhibitory concentration (IC50) was at most 100 nM.

Regarding `N#Cc1c(-c2ccc3c(c2)OCCO3)cccc1N1CCC(NC2CCCCC2)CC1` [Example 20, 2-(4-(cyclohexylamino)piperidin-1-yl)-6-(2,3-dihydrobenzo[b][1,4]dioxin-6-yl)benzonitrile], the IC50 was at most 100 nM.

`CO[C@H]1C[C@@H](NC2CCN(c3cccc(-c4ccc5c(c4)OCCO5)c3C#N)CC2)C1` [Example 14, 2-(2,3-dihydrobenzo[b][1,4]dioxin-6-yl)-6-(4-(cis-3-methoxycyclobutylamino)piperidin-1-yl)benzonitrile]: the IC50 was at most 100 nM.

In the case of `Cc1c(-c2ccccc2)cccc1N1CCC(NC2CCC(C(=O)O)(c3ccc(Cl)cc3)CC2)CC1` (single isomer, unassigned) [47 (peak 1), 1-(4-chlorophenyl)-4-(1-(2-methylbiphenyl-3-yl)piperidin-4-ylamino)cyclohexane carboxylic acid], the IC50 is at most 100 nM.

Regarding `CN(C)C1CCN(c2cccc(-c3ccc4c(c3)OCCO4)c2C#N)CC1` [Example 3, 2-(2,3-dihydrobenzo[b][1,4]dioxin-6-yl)-6-(4-(dimethylamino)piperidin-1-yl)benzonitrile], the IC50 fell in the range of 100 to 500 nM.

With `COCC(C)NC1CCN(c2cccc(-c3ccccc3)c2C)CC1` (racemic) [Example 44, N-(1-methoxypropan-2-yl)-1-(2-methylbiphenyl-3-yl)piperidin-4-amine], the concentration for half-maximal inhibition (IC50) is at most 100 nM.

Consider `N#Cc1c(-c2ccc3c(c2)OCCO3)cccc1N1CCC(NC2CC3(CCC3)C2)CC1` [Example 10, 2-(2,3-dihydrobenzo[b][1,4]dioxin-6-yl)-6-(4-(spiro[3.3]heptan-2-ylamino)piperidin-l-yl)benzonitrile], for which the IC50 is at most 100 nM.

With `Cc1c(-c2ccccc2)cccc1N1CCC(NCCc2cnn(C)c2)CC1` [Example 31, N-(2-(1-methyl-1H-pyrazol-4-yl)ethyl)-1-(2-methylbiphenyl-3-yl)piperidin-4-amine], the half-maximal inhibitory concentration (IC50) was at most 100 nM.

For the compound `COc1ccc(C2(CNC3CCN(c4cccc(-c5ccc6c(c5)OCCO6)c4C#N)CC3)CCOCC2)cc1` [Example 11, 2-(2,3-dihydrobenzo[b][1,4]dioxin-6-yl)-6-(4-((4-(4-methoxyphenyl)tetrahydro-2H-pyran-4-yl)methylamino)piperidin-1-yl)benzonitrile], the concentration for half-maximal inhibition (IC50) was at most 100 nM.

`Cc1c(-c2ccccc2)cccc1N1CCC(NC2CCCC(C(=O)O)C2)CC1` (single isomer, unassigned) [46 (peak 2), 3-(1-(2-methylbiphenyl-3-yl)piperidin-4-ylamino)cyclohexane carboxylic acid]: the IC50 is at most 100 nM.

For the compound `N#Cc1c(-c2ccc3c(c2)OCCO3)cccc1N1CCC(NC2CC2)CC1` [Example 2, 2-(4-(cyclopropylamino)piperidin-1-yl)-6-(2,3-dihydrobenzo[b][1,4]dioxin-6-yl)benzonitrile], the half-inhibitory concentration (IC50) is at most 100 nM.

As to `N#Cc1c(-c2ccc3c(c2)OCCO3)cccc1N1CCC(NC2CCOCC2)CC1` [Example 7, 2-(2,3-dihydrobenzo[b][1,4]dioxin-6-yl)-6-(4-(tetrahydro-2H-pyran-4-ylamino)piperidin-1-yl)benzonitrile], the concentration for half-maximal inhibition (IC50) is at most 100 nM.

`CC1(NC2CCN(c3cccc(-c4ccc5c(c4)OCCO5)c3C#N)CC2)CC1` [Example 22, 2-(2,3-dihydrobenzo[b][1,4]dioxin-6-yl)-6-(4-(1-methylcyclopropylamino)piperidin-1-yl)benzonitrile]: the IC50 is at most 100 nM.

In the case of `COc1cccc(-c2cccc(N3CCC(N4CCCC4)CC3)c2C#N)c1` [Example 48, 3′-methoxy-3-(4-(pyrrolidin-1-yl)piperidin-1-yl)biphenyl-2-carbonitrile], the half-inhibitory concentration (IC50) lay within 100 to 500 nM.

As for `Cc1c(-c2ccccc2)cccc1N1CCC(NC2CC2)CC1` [Example 36, N-cyclopropyl-1-(2-methylbiphenyl-3-yl)piperidin-4-amine], the half-maximal inhibitory concentration (IC50) was at most 100 nM.

For `N#Cc1c(-c2ccc3c(c2)OCCO3)cccc1N1CCC(NCC2(CO)CC2)CC1` [Example 4, 2-(2,3-dihydrobenzo[b][1,4]dioxin-6-yl)-6-(4-((l-(hydroxymethyl)cyclopropyl)methylamino)piperidin-1-yl)benzonitrile], the IC50 is at most 100 nM.

`CC(O)C1CCN(C2CCN(c3cccc(-c4ccc5c(c4)OCCO5)c3C#N)CC2)C1` (centres unmarked) [Example 21, 2-(2,3-dihydrobenzo[b][1,4]dioxin-6-yl)-6-(4-(3-(1-hydroxyethyl)pyrrolidin-1-yl)piperidin-1-yl)benzonitrile]: the IC50 was at most 100 nM.

Turning to `N#Cc1c(-c2ccc3c(c2)OCCO3)cccc1N1CCC(NC2CCCOC2)CC1` (centres unmarked) [Example 16, 2-(2,3-dihydrobenzo[b][1,4]dioxin-6-yl)-6-(4-(tetrahydro-2H-pyran-3-ylamino)piperidin-1-yl)benzonitrile], the IC50 is at most 100 nM.

Take `C[C@@H]1CN(C2CCN(c3cccc(-c4ccc5c(c4)OCCO5)c3C#N)CC2)C[C@H]1CO` (relative stereo) [Example 9, 2-(2,3-dihydrobenzo[b][1,4]dioxin-6-yl)-6-(4-(trans-3-(hydroxymethyl)-4-methylpyrrolidin-1-yl)piperidin-1-yl)benzonitrile]: the IC50 is at most 100 nM.

As for `N#Cc1c(-c2ccc3c(c2)OCCO3)cccc1N1CCC(NC2CCCC2CO)CC1` (stereo not drawn) [Example 17, 2-(2,3-dihydrobenzo[b][1,4]dioxin-6-yl)-6-(4-(cis-2-(hydroxymethyl)cyclopentylamino)piperidin-l-yl)benzonitrile], the IC50 was at most 100 nM.

On to `CC[C@H](CO)NC1CCN(c2cccc(-c3ccccc3)c2C)CC1` [Example 35, (R)-2-(1-(2-methylbiphenyl-3-yl)piperidin-4-ylamino)butan-l-ol], for which the IC50 was at most 100 nM.

On to `N#Cc1c(-c2ccc3c(c2)OCCO3)cccc1N1CCC(N2CCC(CCO)C2)CC1` (centres unmarked) [Example 15, 2-(2,3-dihydrobenzo[b][1,4]dioxin-6-yl)-6-(4-(3-(2-hydroxyethyl)pyrrolidin-1-yl)piperidin-1-yl)benzonitrile], for which the IC50 is at most 100 nM.

In the case of `Cc1c(-c2ccccc2)cccc1N1CCC(NC2CC(CO)C2)CC1` (centres unmarked) [Example 43, (3-(1-(2-methylbiphenyl-3-yl)piperidin-4-ylamino)cyclobutyl) methanol], the IC50 is at most 100 nM.

By IC50 is commonly meant the concentration that gives 50% inhibition.
